Values quoted from earlier work as cited in patent US20060051490A1, “Food component and processes for the preparation thereof” (priority 2003, published 2006).

Conditions: for solubility in 100 parts of water: in 100 parts of water at room temperature, approximate

miscibility with water	solubility in 100 parts of water	Structure (SMILES)
miscible with water in all proportions	–	CC(O)C(=O)O (stereo not shown) [lactic acid]
–	~1.5 parts	O=C(O)/C=C/C(=O)O [fumaric, fumaric acid]
miscible with water in all proportions	–	CC(=O)O [Acetic acid, acetic acid]
–	~150 parts	O=C(O)CC(O)C(=O)O (stereo not shown) [malic, malic acid]
